The values that follow come from patent US7943146B2, “Immunizing compositions comprising HIV-1 proviral constructs with an inactive p6 gag TSG101 UEV binding domain capable of producing budding-defective viral particles that remain tethered to the cell surface” (priority 2001, dated 2011).

Data set [1] is described as follows: Cytotoxicity measurement in uninfected PBMCs (MTS staining). The class given is cell-based. As to conditions: human PBMCs without virus, seven days; read-out: TC50. Here is the method: At assay termination the assay plates were stained with the soluble tetrazolium-based dye MTS (CellTiter Reagent, Promega) to determine cell viability and quantify compound toxicity. MTS is metabolized by the mitochondria enzymes of metabolically active cells to yield a soluble formazan product, allowing the rapid quantitative analysis cell viability and compound cytotoxicity. […] At termination of the assay, 20 μl of MTS reagent was added per well. The wells were incubated overnight for the HIV cytoprotection assay at 37° C. The incubation intervals were chosen based on empirically determined times for optimal dye reduction in each cell type. Adhesive plate sealers were used in place of the lids, the sealed plate was inverted several times to mix the soluble formazan product and the plate was read spectrophotometrically at 490 nm with a Molecular Devices Vmax plate reader.

The next data set concerns HIV. Kind of data set: microbe, parasite or virus in culture. The class given is cell-based, HIV-1. Here is the method:
Fresh human blood was obtained commercially from Interstate Blood Bank, Inc. (Memphis, Tenn.). The lymphotropic clinical isolate HIV-1ROJO was obtained from a pediatric patient attending the AIDS Clinic at the University of Alabama at Birmingham. The laboratory-adapted HIV-1IIIB strain was propagated and tittered in fresh human PBMCs; pre-titered aliquots of HIV-1ROJO and Hiv-1IIIB were removed from the freezer (−80° C.) and thawed rapidly to room temperature in a biological safety cabinet immediately before use. Phytohemagglutinin (PHA-P) was obtained from Sigma (St. Louis, Mo.) and recombinant IL-2 was obtained from Amgen (San Francisco, Calif.).
Fresh human PBMCs were isolated from screened donors, seronegative for HIV and HBV. Leukophoresed blood was diluted 1:1 with Dulbecco's phosphate buffered saline (PBS), layered over 14 mL of Ficoll-Hypaque density gradient in a 50 mL centrifuge tube and then centrifuged for 30 minutes at 600×g. Banded PBMCs were aspirated from the resulting interface and subsequently washed 2× with PBS by low speed centrifugation. After the final wash, cells were enumerated by trypan blue exclusion and re-suspended at 1×10^7 cells/mL in RPMI 1640 supplemented with 15% Fetal Bovine Serum (FBS), 2 mM L-glutamine, 4 μg/mL PHA-P. The cells were allowed to incubate for 48-72 hours at 37° C. After incubation, PBMCs were centrifuged and reset in RPMI 1640 with 15% FBS, 2 mM L-glutamine, 100 U/ml penicillin, 100 μg/mL streptomycin, 10 μg/mL gentamycin, and 20 U/mL recombinant human IL-2. PBMCs were maintained in this medium at a concentration of 1-2×10^6 cells/mL with biweekly medium changes until used in the assay protocol.
For the standard PBMC assay, PHA-P stimulated cells from at least two normal donors were pooled, diluted in fresh medium to a final concentration of 1×10^6 cells/mL, and plated in the interior wells of 96 well round bottom microplate at 50 μL/well (5×10^4 cells/well). Test drug dilutions were prepared at a 2× concentration in microtiter tubes and […] of each concentration was placed in appropriate wells in a standard format. […] Wells with cells and virus alone were used for virus control. Separate plates were prepared identically without virus for drug cytotoxicity studies using an XTT assay system. The PBMC cultures were maintained for seven days following infection, at which time cell-free supernate samples were collected and assayed for reverse transcriptase activity as described below.
A microtiter based reverse transcriptase (RT) reaction was utilized. See Buckheit et al., AIDS Research and Human Retroviruses 7:295-302 (1991). Tritiated thymidine triphosphate (NEN) (TTP) was resuspended in distilled H2O at 5 Ci/ml. Poly rA and oligo dT were prepared as a stock solution which was kept at −20° C. The RT reaction buffer was prepared fresh on a daily basis and consists of 125 μl 1M EGTA, 125 μl dH2O, 110 μl 10% SDS, 50 μl 1M Tris (pH 7.4), 50 μl 1M DTT, and 40 μl 1M MgCL2. These three solutions were mixed together in a ratio of 2 parts TTP, 1 part poly rA:oligo dT, and 1 part reaction buffer. Ten microliters of this reactions mixture was placed at a round bottom microtiter plate and 15 μl of virus containing supernatant was added and mixed. […] Opti-Fluor-O (Packard) was added to each sample and incorporated radioactivity was quantified utilizing a Wallac 1450 MicroBeta Plus liquid scintillation counter.

For data set [2], the target named is T1, interaction between GAGp6 and Tsg101 (Homo sapiens, UniProt Q99816).
T1 construct: Drosophila S2 cell lysate myc-tagged Tsg101 (residues 1-207); made in house; host or cells: Drosophila S2 cells (Tsg101, used as cell lysate)
T1 sequence (Q99816 1-207): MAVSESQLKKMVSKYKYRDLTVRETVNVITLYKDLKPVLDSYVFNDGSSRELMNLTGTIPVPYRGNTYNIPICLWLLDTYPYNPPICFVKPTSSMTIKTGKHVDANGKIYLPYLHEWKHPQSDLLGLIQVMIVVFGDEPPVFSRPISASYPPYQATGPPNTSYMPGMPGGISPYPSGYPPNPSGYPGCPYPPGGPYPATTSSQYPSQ
Put plainly: In vitro binding assay: GST-p6 on plate, myc-tagged Tsg101 (residues 1-207), competition by peptide. As to conditions: FIG. 3, different peptide concentrations, fluorescence signal. The protocol: A fusion protein with a GST tag fused to the HIV-1 GAGp6 domain was recombinantly expressed and purified by chromatography. In addition, a GAGp6 peptide containing the first 14 amino acid residues (“p6(1-14)”) was synthesized chemically by standard peptide synthesis methods. The peptide was purified by conventional protein purification techniques, e.g., by chromatography.
Nunc/Nalgene Maxisorp plates were incubated overnight at 4° C. or for 1-2 hrs at room temperature in 100 μl of a protein coupling solution containing purified GST-p6 and 50 mM Carbonate, pH=9.6. This allowed the attachment of the GST-p6 fusion protein to the plates. Liquids in the plates were then emptied and wells filled with 400 μl/well of a blocking buffer (SuperBlock; Pierce-Endogen, Rockford, Ill.). […]
Plates were then washed 4×100 μl with 1×PBST solution (Invitrogen; Carlsbad, Calif.). […] Plates were then read on a Packard Fusion instrument at an excitation wavelength of 325 nm and an emission wavelength of 420 nm. […]
Different concentrations of the p6(1-14) peptide were tested, and the relative intensities of the fluorescence signals obtained at different concentrations were plotted against the peptide concentrations. […]

Some results are limits rather than exact numbers.

The IC50 is the midpoint of a concentration-inhibition curve. High values mean a need for much substance, low ones inhibition by little substance. Turning to `Cc1cn([C@H]2C[C@H](N=[N+]=[N-])[C@@H](CO)O2)c(=O)[nH]c1=O` [AZT, 3′-Azido-3′-deoxythymidine, reference compound], the CC50 at 7 days in data set [1] was greater than 1000 nM. For the same compound, 8 nM corresponded to half-maximal inhibition in the data set with HIV (Human immunodeficiency virus 1, PBMC, 168 h, PHA-P stimulated human PBMCs, MOI≈0.1, seven days, RT activity in supernate) (IC50). Also, the “Comments (anti-HIV activity)” value with HIV (human PBMCs) is on record as “Control; Highly Active”.
For “p6(1-14): GAGp6 peptide containing the first 14 amino acid residues, synthesized chemically (LQSRPEPTAPPEES)”, the “inhibition of the interaction between GAGp6 and Tsg101” value in data set [2] is on record as “competitive inhibition”.
